# Patent US5688936A, “Vesicle membrane transport proteins” (priority 1993, dated 1997)
# Entries after “also recorded” stand apart in the source; their conditions may differ. Read-outs that look alike come from different tables or passages of the source.
# T1: chromaffin granule amine transport protein (Rattus norvegicus, UniProt Q01818)
# T1 sequence (Q01818 1-521): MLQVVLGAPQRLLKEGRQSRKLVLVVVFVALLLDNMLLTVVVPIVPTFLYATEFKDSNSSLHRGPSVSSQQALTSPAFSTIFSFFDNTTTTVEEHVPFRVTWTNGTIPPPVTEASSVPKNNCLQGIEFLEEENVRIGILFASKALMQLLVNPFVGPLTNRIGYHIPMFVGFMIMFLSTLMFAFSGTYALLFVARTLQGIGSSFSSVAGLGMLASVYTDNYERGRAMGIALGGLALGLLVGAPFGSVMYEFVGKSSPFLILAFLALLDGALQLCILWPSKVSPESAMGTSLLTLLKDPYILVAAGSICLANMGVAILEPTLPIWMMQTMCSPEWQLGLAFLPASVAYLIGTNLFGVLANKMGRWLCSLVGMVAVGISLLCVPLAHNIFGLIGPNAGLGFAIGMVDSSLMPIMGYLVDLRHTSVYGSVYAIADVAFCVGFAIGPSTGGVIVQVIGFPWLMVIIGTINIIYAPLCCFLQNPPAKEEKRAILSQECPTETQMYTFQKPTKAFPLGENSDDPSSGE
# B1: brain-derived neurotrophic factor (BDNF): neurotrophic factors such as brain-derived neurotrophic factor (BDNF) (protein, UniProt P23560 19-247, looked up)
# Neurotrophic factor BDNF …: APMKEANIRGQGGLAYPGVRTHGTLESVNGPKAGSRGLTSLADTFEHVIEELLDEDQKVRPNEENNKDADLYTSRVMLSSQVPLEPPLLFLLEEYKNYLDAANMSMRVRRHSDPARRGELSVCDSISEWVTAADKKTAVDMSGGTVTVLEKVPVSKGQLKQYFYETKCNPMGYTKEGCRGIDKRHWNSQCRTTQSYVRALTMDSKKRIGWRFIRIDTSCVCTLTIKRGR
# Columns and labels:
# dopamine nerve terminals = conditions: mice; cited from earlier work
# central dopamine neurons = conditions: primates; cited from earlier work
# [1] = target: T1, chromaffin granule amine transport protein; experiment: cell-based; assay type: cell-based; conditions: for inhibition of vesicular amine uptake/transport (fluorescence assay, in words): concentrations of Table 1
# Description: Uptake and cellular compartmentalization of loaded dopamine were performed by growing cells on poly-lysine-coated glass coverslips. […] The cells were then washed three times in 0.1M sodium phosphate, pH 7.4, and incubated at 4° C. in 2% glyoxylic acid/0.5 mg% MgCl2, pH 4.9-5.0 for three minutes as described by de la Torre, J. Neurosci. Meth. 3:1-5 (1980). Briefly, excess solution is wiped off the bottom and edges of the slide using absorbent paper, taking care not to touch the section. The coverslips were then drained thoroughly, dried in air at 45° C. heated to 80° C. for five minutes, inverted over mineral oil on glass slides and examined under fluorescence using the appropriate filters as described by Knigge et al., Brain Res. 120:393-405 (1977). Briefly, the preparations were infiltrated with warm immersion oil and examined in a Leitz MPV2 microspectrofluorometer equipped with Schoffel excitation and emission grating monochromators, photomultipliers, and ratio computing circuitry. Cells were scanned with either monochromatic light (370 nm) or narrow band excitation (S405, BG3) light for the purpose of identifying fluorescence within cells. Ploem illumination was used in combination with a X 63 or X 100 oil immersion objective.
# Dopamine-loaded fluorescence was carried out as described in Example 1. […] Glyoxylic-acid-induced fluorescence was used to determine the intracellular distribution as described above in Example 1. The procedures were the same as described in Example 1 however a pure cDNA clone encoding the vesicle membrane transport protein, selected in the presence of MPP^+, obtained as described herein, was used rather than the primary transformant. […]
# The effects of various pharmacologic agents were tested to determine whether the properties of the protein encoded by the mpp^res cDNA corresponded with those expected for the chromaffin granule amine transport protein. […] The cells were pre-incubated in Krebs-Ringer buffer containing 1 μM pargyline and the dose of the drug indicated for 15 minutes. 25 nM [^3 H]-dopamine was then added in the same buffer and after incubation at 37° C. for one hour, the cells were washed in cold Krebs-Ringer buffer, lysed and counted in Ecolite (ICN) as described by Greene and Rein, Brain Res. 129:247-263 (1978). Values were determined from three separate wells and the mean was expressed as percent of control uptake±standard deviation. […] The dose required to inhibit maximal uptake by 50%, Ki, was estimated from the fluorescence data using a range of concentrations for each agent.
# PC12 cells [2] = conditions: percent of control uptake ± SD; agent 10 mM; 25 nM [3H]-dopamine, 1 h, 37° C.
# Description: (§2) The effects of various pharmacologic agents were tested to determine whether the properties of the protein encoded by the mpp^res cDNA corresponded with those expected for the chromaffin granule amine transport protein. […] The cells were pre-incubated in Krebs-Ringer buffer containing 1 μM pargyline and the dose of the drug indicated for 15 minutes. […] Values were determined from three separate wells and the mean was expressed as percent of control uptake±standard deviation.
# [3] = target: T1, chromaffin granule amine transport protein; experiment: Quantitative [3H]dopamine transport assay with mpp^res CHO cell homogenate; assay type: biochemical; conditions: dose-response, 2-minute incubation (FIG. 15C)
# Description: The quantity of label bound is measured after filtration of the assay mixture. Preferably, the label is a radioactive label. […] This can be done by standard graphic kinetic techniques such as the Lineweaver-Burke plot.
# Incubation was performed at 29° C. for the time period indicated (from 2 minutes to 30 minutes). The assay was terminated by dilution in cold assay buffer followed by filtration through 0.2 μm Supor™ 200 membranes (Gelman, Ann Arbor, Mich.) and the bound radioactivity was measured. The cells used for the quantitative assay are selected in MPP^+ or screened with antibody to ensure that they express the transporter at high levels, as it is difficult to measure activity in this assay at low levels of transporter expression.
# The quantitative transport test was performed as described above on wild-type CHO cells and mpp^res CHO cells.
# [4] = system: plasma membrane monoamine transport activity; conditions: cited from earlier work
# monoamine oxidase = conditions: cited from earlier work
# idiopathic PD = conditions: in vivo, cited from earlier work
# respiratory complex I = conditions: cited from earlier work
# wild-type CHO cells = experiment: MTT cytotoxicity assay in wild-type CHO cells; assay type: cell-based, Chinese hamster; conditions: CHO cells (FIG. 6b)
# Description: (§1) Differential susceptibility to the respiratory complex I inhibitors MPP^+ and rotenone was shown by measuring toxicity by measuring general cell dehydrogenase activity with reduction of a tetrazolium dye (MTT) in a spectrophotometric plate assay as described by Hansen et al., J. Immunol. Methods 119:203-210 (1989). Briefly, a stock solution of MTT (3,(4,5-dimethylthiazol-2-yl)2,5-diphenyltetrazolium bromide) was dissolved at a concentration of 5 mg/ml in sterile phosphate buffered saline at room temperature. To each well was added 25 μl of the stock solution. After two hours of incubation at 37° C., 100 μl of extraction buffer (20% w/v of SDS in a solution of 50% each dimethylformamide and demineralized water with the pH adjusted to 4.7 with acetic acid and HCl). After an overnight incubation at 37° C., the optical densities at 570 nm were measured using a multiscanner, employing the extraction buffer as the blank. This assay was carried out in triplicate on 96-well plates (NUNC, Denmark). MPP^+ and rotenone at the concentrations indicated in FIG. 6a and 6b, respectively, was added to wild-type and MPP^+ -resistant CHO cells at approximately 50% confluence, and toxicity was assayed after 2-3 days by measuring general cell dehydrogenase activity with the reduction of the tetrazolium dye MTT (3,(4,5-dimethylthiazol-2-yl)2,5-diphenyl-tetrazolium bromide). After addition of the dye at a final concentration of 1 mg/ml, the cells were incubated for two hours at 37° C. and the formazan product was solubilized in 10% sodium dodecyl sulfate (SDS). The plates were maintained at 37° C. for an additional twenty hours and the optical density was determined in an ELISA plate reader at a test wavelength of 570 nm, a reference wavelength of 630 nm and a calibration setting of 1.99. All determinations were performed in triplicate and expressed as the mean, with the error bars representing standard deviation (FIG. 6a and 6b).
# [5] = system: MPP^+ -resistant CHO cells; experiment: MTT cytotoxicity assay in MPP+-resistant transfected CHO cells; assay type: cell-based, Chinese hamster
# Description: as §1
# To determine whether an alteration in the process of respiration was responsible for the resistance to MPP^+, the effects of other known respiratory inhibitors were examined. […] Thus, if the resistance were due to a change in the site of action, the transfected cells should also show resistance to rotenone. […] However, rotenone is considered to have its selected effect on respiration at relatively low doses, and an additional, less specific effect at higher doses.
# Therefore, the toxicity of MPP^+ to transfected cells in the presence of 1 μM reserpine was examined.
# PC12 cells [6] = experiment: cells; conditions: Rattus norvegicus, PC-12, 1 h, read-out: [^3 H]-Dopamine Uptake (PC12)
# Description: as §2
# amine stores = conditions: in vivo; cited from earlier work
# [7] = system: vesicular amine transport protein; conditions: cited from earlier work
# chromaffin cells = conditions: co-incubation with MPP+; cited from earlier work
# [8] = system: complex III of the respiratory chain; conditions: cited from earlier work
# midbrain cells = conditions: in vitro; cited from earlier work
molecule,measurement,setting,value
"CN1CC=C(c2ccccc2)CC1 [1-methyl-4-phenyl-1,2,3,6-tetrahydropyridine]",damage to dopamine nerve terminals,dopamine nerve terminals,dopamine nerve terminals in mice
same,damage to central dopamine neurons,central dopamine neurons,Damage to central dopamine neurons
"Cl.N [NH4 Cl, ammonium chloride]","inhibition of vesicular amine uptake/transport (fluorescence assay, in words)",[1],inhibited uptake only partially
same,[^3 H]-Dopamine Uptake (PC12),PC12 cells [2],51 ± 3%
COC(=O)[C@H]1[C@@H](OC(=O)c2ccccc2)C[C@@H]2CC[C@H]1N2C [cocaine],inhibition of dopamine transport,[3],no inhibition
same,inhibition of plasma membrane monoamine transport,[4],inhibiting this activity
C#CCN(C)C(C)Cc1ccccc1 (stereo not shown) [deprenyl],inhibition of monoamine oxidase,monoamine oxidase,"inhibits the enzyme that activates MPTP, monoamine oxidase"
same,rate of progression of Parkinson's disease,idiopathic PD,slow the rate of progression of the disease
same,rate of progression of Parkinson's disease,idiopathic PD; listed as Deprenyl,appears to slow the rate of progression
C=C(C)[C@H]1Cc2c(ccc3c2O[C@@H]2COc4cc(OC)c(OC)cc4[C@@H]2C3=O)O1 [rotenone],inhibition of respiratory complex I,respiratory complex I,inhibits complex I
same,rotenone toxicity pattern (MTT assay),wild-type CHO cells,biphasic pattern
same,resistance of the transfectant to rotenone,[5]; vs wild-type,no substantial resistance
COc1cc2c(cc1OC)C1CC(=O)C(CC(C)C)CN1CC2 (stereo not shown) [tetrabenazine],inhibition of dopamine transport,[3],inhibition by both reserpine and tetrabenazine
same,activity at 100 µM,PC12 cells [6],45 ± 2%
same,potency to deplete central rather than adrenal amine stores,amine stores,greater potency of that drug to deplete central rather than adrenal amine stores
same,"inhibition of vesicular amine uptake/transport (fluorescence assay, in words)",[1],"inhibited transport, but at high concentrations"
same,Ki,"[1]; dose required to inhibit maximal uptake by 50%, estimated from fluorescence data, read-out: Ki (est)",100 µM
same,inhibition of vesicular amine transport,[7],an inhibitor of vesicular uptake; also recorded: inhibit this transport activity
same,effect on MPP+ toxicity to chromaffin cells,chromaffin cells,chromaffin cell toxicity was potentiated
oligomycin,oligomycin toxicity pattern,[5]; wild-type vs resistant transfected CHO cells,same pattern of toxicity in wild-type and in resistant transfected CHO cells
same,inhibition of respiratory complex III,[8],inhibits complex III
B1,protection of midbrain cells from MPP+,midbrain cells,can protect midbrain cells from MPP^+ in vitro
